In ChEMBL document CHEMBL2401658, “Selectivity of phenothiazine cholinesterase inhibitors for neurotransmitter systems” (Bioorg Med Chem Lett, 2013):

Columns and labels:
[1] = target: D(3) dopamine receptor (Homo sapiens, UniProt P35462); assay: Antagonist activity at dopamine D3 receptor (unknown origin) by PDSP assay
[2] = target: 5-hydroxytryptamine receptor 6 (Homo sapiens, UniProt P50406); assay: Antagonist activity at serotonin 5HT6 receptor (unknown origin) by PDSP assay
[3] = target: Beta-3 adrenergic receptor (Homo sapiens, UniProt P13945); assay: Antagonist activity at adrenergic beta3 receptor (unknown origin) by PDSP assay
[4] = target: T1, 5-hydroxytryptamine receptor 2C (Homo sapiens, UniProt P28335); assay: Antagonist activity at serotonin 5HT2C receptor (unknown origin) by PDSP assay
T1 sequence (P28335 whole entry): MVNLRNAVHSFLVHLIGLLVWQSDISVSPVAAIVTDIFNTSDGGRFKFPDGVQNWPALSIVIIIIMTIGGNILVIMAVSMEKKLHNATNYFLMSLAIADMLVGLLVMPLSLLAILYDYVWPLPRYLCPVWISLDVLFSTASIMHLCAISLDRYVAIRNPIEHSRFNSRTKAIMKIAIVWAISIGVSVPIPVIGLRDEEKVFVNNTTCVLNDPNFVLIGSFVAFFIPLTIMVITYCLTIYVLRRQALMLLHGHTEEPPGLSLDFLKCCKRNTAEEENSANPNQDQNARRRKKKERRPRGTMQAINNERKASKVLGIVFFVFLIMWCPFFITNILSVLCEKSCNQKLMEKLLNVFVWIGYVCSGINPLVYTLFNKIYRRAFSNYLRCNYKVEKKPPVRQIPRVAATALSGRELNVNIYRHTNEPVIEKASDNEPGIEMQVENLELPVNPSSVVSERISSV

[5] = target: T2, 5-hydroxytryptamine receptor 1A (Homo sapiens, UniProt P08908); assay: Antagonist activity at serotonin 5HT1A receptor (unknown origin) by PDSP assay
T2 sequence (P08908 whole entry): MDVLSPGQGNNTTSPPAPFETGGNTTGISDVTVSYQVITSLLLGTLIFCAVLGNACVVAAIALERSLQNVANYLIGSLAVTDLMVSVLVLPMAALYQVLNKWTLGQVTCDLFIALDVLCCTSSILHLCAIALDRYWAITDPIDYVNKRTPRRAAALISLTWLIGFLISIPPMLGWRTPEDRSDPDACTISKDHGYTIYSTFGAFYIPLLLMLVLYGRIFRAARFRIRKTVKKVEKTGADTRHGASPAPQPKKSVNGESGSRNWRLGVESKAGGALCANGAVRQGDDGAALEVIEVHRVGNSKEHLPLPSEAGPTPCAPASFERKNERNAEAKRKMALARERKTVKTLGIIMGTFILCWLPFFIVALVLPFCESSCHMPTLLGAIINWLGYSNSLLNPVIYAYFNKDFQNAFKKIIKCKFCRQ

[6] = target: 5-hydroxytryptamine receptor 2B (Homo sapiens, UniProt P41595); assay: Antagonist activity at serotonin 5HT2B receptor (unknown origin) by PDSP assay
[7] = target: 5-hydroxytryptamine receptor 2A (Homo sapiens, UniProt P28223); assay: Antagonist activity at serotonin 5HT2A receptor (unknown origin) by PDSP assay
[8] = target: Muscarinic acetylcholine receptor M5 (Homo sapiens, UniProt P08912); assay: Antagonist activity at muscarinic M5 receptor (unknown origin) by PDSP assay
[9] = target: Muscarinic acetylcholine receptor M3 (Homo sapiens, UniProt P20309); assay: Antagonist activity at muscarinic M3 receptor (unknown origin) by PDSP assay
[10] = target: Muscarinic acetylcholine receptor M4 (Homo sapiens, UniProt P08173); assay: Antagonist activity at muscarinic M4 receptor (unknown origin) by PDSP assay
[11] = target: Muscarinic acetylcholine receptor M2 (Homo sapiens, UniProt P08172); assay: Antagonist activity at muscarinic M2 receptor (unknown origin) by PDSP assay
[12] = target: Histamine H3 receptor (Homo sapiens, UniProt Q9Y5N1); assay: Antagonist activity at histamine H3 receptor (unknown origin) by PDSP assay
[13] = target: Muscarinic acetylcholine receptor M1 (Homo sapiens, UniProt P11229); assay: Antagonist activity at muscarinic M1 receptor (unknown origin) by PDSP assay
[14] = target: Alpha-2C adrenergic receptor (Homo sapiens, UniProt P18825); assay: Antagonist activity at adrenergic alpha2C receptor (unknown origin) by PDSP assay
[15] = target: Histamine H1 receptor (Homo sapiens, UniProt P35367); assay: Antagonist activity at histamine H1 receptor (unknown origin) by PDSP assay
[16] = target: 5-hydroxytryptamine receptor 3A (Homo sapiens, UniProt P46098); assay: Antagonist activity at serotonin 5HT3 receptor (unknown origin) by PDSP assay
[17] = target: 5-hydroxytryptamine receptor 1D (Homo sapiens, UniProt P28221); assay: Antagonist activity at serotonin 5HT1D receptor (unknown origin) by PDSP assay
[18] = target: Histamine H2 receptor (Homo sapiens, UniProt P25021); assay: Antagonist activity at histamine H2 receptor (unknown origin) by PDSP assay
[19] = target: Sodium-dependent dopamine transporter (Homo sapiens, UniProt Q01959); assay: Antagonist activity at DAT (unknown origin) by PDSP assay
[20] = target: Cholinesterase (Homo sapiens, UniProt P06276); assay: Inhibition of BuChE (unknown origin)
[21] = target: Alpha-2B adrenergic receptor (Homo sapiens, UniProt P18089); assay: Antagonist activity at adrenergic alpha2B receptor (unknown origin) by PDSP assay
[22] = target: D(1A) dopamine receptor (Homo sapiens, UniProt P21728); assay: Antagonist activity at dopamine D1 receptor (unknown origin) by PDSP assay
[23] = target: 5-hydroxytryptamine receptor 7 (Homo sapiens, UniProt P34969); assay: Antagonist activity at serotonin 5HT7 receptor (unknown origin) by PDSP assay
[24] = target: Alpha-2A adrenergic receptor (Homo sapiens, UniProt P08913); assay: Antagonist activity at adrenergic alpha2A receptor (unknown origin) by PDSP assay
[25] = target: 5-hydroxytryptamine receptor 5A (Homo sapiens, UniProt P47898); assay: Antagonist activity at serotonin 5HT5A receptor (unknown origin) by PDSP assay
[26] = target: 5-hydroxytryptamine receptor 1B (Homo sapiens, UniProt P28222); assay: Antagonist activity at serotonin 5HT1B receptor (unknown origin) by PDSP assay
[27] = target: Sodium-dependent serotonin transporter (Homo sapiens, UniProt P31645); assay: Antagonist activity at serotonin transporter (unknown origin) by PDSP assay
[28] = target: Alpha-1D adrenergic receptor (Homo sapiens, UniProt P25100); assay: Antagonist activity at adrenergic alpha 1D receptor (unknown origin) by PDSP assay
[29] = target: Alpha-1A adrenergic receptor (Homo sapiens, UniProt P35348); assay: Antagonist activity at adrenergic alpha1A receptor (unknown origin) by PDSP assay

Sequence of Histamine H2 receptor (P25021 whole entry): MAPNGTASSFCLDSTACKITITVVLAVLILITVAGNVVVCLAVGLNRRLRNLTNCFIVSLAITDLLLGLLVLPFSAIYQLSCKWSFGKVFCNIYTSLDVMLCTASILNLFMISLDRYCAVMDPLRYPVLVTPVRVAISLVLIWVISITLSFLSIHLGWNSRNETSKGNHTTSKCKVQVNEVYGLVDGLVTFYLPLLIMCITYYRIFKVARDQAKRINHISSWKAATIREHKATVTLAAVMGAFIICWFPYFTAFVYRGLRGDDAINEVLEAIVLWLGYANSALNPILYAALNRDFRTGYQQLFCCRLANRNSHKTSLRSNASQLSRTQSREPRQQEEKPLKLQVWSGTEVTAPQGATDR
Sequence of 5-hydroxytryptamine receptor 2B (P41595 whole entry): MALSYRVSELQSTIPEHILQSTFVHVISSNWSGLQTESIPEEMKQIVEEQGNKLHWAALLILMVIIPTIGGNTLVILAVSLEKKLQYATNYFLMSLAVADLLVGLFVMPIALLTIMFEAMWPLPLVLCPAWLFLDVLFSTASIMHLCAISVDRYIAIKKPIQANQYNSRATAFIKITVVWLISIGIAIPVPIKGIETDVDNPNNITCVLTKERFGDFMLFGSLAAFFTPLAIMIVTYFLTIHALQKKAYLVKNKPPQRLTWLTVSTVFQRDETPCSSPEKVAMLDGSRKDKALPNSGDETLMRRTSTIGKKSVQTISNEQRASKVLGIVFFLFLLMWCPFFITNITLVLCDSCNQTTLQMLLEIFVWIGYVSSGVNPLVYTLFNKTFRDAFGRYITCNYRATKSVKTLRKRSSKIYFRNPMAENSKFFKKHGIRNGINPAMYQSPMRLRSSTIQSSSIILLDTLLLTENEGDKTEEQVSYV
Sequence of Cholinesterase (P06276 whole entry): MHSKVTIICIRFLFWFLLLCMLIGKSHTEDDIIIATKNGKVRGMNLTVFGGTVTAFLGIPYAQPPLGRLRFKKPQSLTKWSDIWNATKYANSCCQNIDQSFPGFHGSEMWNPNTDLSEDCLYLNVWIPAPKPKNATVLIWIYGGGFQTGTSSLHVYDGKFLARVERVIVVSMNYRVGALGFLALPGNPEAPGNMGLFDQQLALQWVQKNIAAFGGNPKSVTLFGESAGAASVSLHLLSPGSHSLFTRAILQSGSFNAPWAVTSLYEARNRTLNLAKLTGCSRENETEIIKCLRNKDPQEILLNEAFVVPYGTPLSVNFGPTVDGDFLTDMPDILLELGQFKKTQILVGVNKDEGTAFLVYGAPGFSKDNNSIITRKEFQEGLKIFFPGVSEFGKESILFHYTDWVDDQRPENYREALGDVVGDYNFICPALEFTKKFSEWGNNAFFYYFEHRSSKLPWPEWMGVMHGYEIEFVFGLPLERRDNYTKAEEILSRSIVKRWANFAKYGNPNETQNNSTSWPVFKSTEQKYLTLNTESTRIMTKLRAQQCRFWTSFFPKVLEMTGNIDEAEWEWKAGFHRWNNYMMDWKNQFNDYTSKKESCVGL
Sequence of D(3) dopamine receptor (P35462 whole entry): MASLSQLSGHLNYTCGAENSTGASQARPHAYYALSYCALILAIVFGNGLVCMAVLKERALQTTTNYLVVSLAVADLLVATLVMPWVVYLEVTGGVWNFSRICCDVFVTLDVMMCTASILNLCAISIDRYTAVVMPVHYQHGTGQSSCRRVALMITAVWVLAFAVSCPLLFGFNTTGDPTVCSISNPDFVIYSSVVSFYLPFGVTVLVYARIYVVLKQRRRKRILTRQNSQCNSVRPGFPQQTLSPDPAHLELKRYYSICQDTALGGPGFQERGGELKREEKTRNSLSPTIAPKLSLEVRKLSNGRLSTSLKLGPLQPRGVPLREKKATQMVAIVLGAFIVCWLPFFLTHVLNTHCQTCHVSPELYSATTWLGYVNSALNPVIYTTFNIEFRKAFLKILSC
Sequence of 5-hydroxytryptamine receptor 2A (P28223 whole entry): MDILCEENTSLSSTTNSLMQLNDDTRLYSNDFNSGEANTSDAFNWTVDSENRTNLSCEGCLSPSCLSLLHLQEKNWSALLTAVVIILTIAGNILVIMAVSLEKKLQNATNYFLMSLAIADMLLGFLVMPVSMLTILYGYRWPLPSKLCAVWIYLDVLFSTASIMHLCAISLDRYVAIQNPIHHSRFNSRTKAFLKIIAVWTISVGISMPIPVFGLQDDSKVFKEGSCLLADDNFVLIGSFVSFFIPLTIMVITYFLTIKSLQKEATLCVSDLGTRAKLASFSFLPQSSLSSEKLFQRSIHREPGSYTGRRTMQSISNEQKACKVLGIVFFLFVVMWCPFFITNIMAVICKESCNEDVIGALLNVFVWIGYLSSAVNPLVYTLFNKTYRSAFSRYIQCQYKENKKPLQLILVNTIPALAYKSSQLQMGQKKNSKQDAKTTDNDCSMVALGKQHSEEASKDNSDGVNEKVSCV
Sequence of Sodium-dependent dopamine transporter (Q01959 whole entry): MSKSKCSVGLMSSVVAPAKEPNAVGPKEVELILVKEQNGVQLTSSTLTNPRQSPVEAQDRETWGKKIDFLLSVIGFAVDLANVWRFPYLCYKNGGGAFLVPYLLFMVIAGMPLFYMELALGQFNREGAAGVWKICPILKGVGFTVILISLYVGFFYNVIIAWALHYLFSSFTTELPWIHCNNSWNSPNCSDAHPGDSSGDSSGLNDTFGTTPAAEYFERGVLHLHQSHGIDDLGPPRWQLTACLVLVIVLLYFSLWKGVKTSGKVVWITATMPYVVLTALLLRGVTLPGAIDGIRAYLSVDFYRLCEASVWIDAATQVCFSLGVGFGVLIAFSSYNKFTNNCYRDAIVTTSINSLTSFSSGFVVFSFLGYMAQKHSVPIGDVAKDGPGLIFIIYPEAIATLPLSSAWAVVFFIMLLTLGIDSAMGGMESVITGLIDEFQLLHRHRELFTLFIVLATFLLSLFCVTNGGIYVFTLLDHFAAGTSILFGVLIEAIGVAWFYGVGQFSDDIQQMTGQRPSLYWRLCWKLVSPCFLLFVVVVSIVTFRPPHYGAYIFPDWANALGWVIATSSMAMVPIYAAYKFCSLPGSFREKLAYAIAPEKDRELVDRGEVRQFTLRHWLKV
Sequence of Alpha-2C adrenergic receptor (P18825 whole entry): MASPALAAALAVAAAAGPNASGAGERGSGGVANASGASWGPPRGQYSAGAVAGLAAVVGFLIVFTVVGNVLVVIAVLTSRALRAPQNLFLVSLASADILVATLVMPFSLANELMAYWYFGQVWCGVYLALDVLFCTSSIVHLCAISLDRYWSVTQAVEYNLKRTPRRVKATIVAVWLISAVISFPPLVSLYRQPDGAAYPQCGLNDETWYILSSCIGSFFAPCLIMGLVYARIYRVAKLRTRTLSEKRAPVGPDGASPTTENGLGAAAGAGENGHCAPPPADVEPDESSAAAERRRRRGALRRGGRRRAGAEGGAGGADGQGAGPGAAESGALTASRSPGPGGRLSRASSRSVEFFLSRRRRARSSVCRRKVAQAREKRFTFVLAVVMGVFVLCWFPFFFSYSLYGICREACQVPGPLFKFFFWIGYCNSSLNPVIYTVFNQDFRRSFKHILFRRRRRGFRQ
Sequence of Muscarinic acetylcholine receptor M5 (P08912 whole entry): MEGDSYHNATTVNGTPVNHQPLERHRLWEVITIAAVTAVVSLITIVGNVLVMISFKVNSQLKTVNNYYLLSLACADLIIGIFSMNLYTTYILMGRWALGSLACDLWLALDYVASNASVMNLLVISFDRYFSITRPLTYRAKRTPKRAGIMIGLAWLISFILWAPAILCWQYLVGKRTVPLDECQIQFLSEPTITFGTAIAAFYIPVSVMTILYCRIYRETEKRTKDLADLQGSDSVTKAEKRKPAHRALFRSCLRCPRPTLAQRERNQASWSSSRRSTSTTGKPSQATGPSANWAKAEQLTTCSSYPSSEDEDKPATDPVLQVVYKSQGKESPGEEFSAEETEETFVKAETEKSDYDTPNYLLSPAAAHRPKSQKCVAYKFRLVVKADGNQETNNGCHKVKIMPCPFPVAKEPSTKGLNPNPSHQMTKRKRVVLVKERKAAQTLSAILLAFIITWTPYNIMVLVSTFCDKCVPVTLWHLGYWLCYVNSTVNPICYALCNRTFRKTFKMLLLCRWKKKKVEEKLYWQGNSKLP
Sequence of Histamine H3 receptor (Q9Y5N1 whole entry): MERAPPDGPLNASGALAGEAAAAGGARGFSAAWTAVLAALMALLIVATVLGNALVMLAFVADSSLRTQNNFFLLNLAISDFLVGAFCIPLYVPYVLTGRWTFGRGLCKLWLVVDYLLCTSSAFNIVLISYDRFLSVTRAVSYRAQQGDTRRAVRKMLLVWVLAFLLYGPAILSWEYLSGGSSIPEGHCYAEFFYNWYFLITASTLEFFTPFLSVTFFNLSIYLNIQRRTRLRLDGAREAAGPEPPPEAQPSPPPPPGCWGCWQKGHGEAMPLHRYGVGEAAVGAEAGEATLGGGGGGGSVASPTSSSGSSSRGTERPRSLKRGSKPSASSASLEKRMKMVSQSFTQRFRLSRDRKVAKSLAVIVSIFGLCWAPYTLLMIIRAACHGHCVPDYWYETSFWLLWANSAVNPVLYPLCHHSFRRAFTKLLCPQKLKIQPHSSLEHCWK
Sequence of 5-hydroxytryptamine receptor 6 (P50406 whole entry): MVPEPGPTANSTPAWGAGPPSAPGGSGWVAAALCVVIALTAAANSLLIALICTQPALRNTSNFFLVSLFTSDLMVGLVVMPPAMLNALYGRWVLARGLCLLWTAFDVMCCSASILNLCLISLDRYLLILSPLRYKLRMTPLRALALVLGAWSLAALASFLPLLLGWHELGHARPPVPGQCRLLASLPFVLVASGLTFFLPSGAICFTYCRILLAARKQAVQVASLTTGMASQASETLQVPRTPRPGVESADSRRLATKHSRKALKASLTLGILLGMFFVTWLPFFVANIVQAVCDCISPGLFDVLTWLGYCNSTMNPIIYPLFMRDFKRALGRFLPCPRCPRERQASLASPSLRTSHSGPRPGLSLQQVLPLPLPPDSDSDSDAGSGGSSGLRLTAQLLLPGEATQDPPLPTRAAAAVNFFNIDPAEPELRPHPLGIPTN

**Q.** Which Ki [1] does the source give for `CC(C(=O)N1c2ccccc2Sc2ccccc21)c1ccccc1` (stereo not drawn) here?
**A.** The Ki was 8900 nM.

**Q.** And the Ki [2]?
**A.** The Ki was 1200 nM.

**Q.** And the Ki [3]?
**A.** The Ki was 2500 nM.

**Q.** What about the Ki [4] of the same compound?
**A.** Its Ki is 390 nM.

**Q.** What about the Ki [5] of the same compound?
**A.** Its Ki is 1100 nM.

**Q.** And the Ki [6]?
**A.** Its Ki is 170 nM.

**Q.** And the Ki [7]?
**A.** The Ki was 180 nM.

**Q.** Which results are given for `CCN(CC)CCCOC(=O)N1c2ccccc2Sc2ccccc21`?
**A.** Ki [8]: 120 nM; Ki [9]: 170 nM; Ki [10]: 21 nM; Ki [11]: 220 nM; Ki [12]: 960 nM; Ki [13]: 64 nM; Ki [14]: 600 nM; Ki [15]: 430 nM; Ki [16]: 3900 nM; Ki [17]: 2700 nM; Ki [18]: 1400 nM; Ki [1]: 1000 nM; Ki [4]: 3100 nM; Ki [5]: 450 nM; Ki [6]: 630 nM; Ki [19]: 6000 nM; Ki [7]: 3600 nM

**Q.** `O=C(C1CCCCCC1)N1c2ccccc2Sc2ccccc21` was tested. Which Ki [20] did it give?
**A.** Its Ki is 860 nM.

**Q.** And the Ki [7]?
**A.** Its Ki is 1700 nM.

**Q.** Which results are given for `O=C(OCCN1CCCC1)N1c2ccccc2Sc2ccccc21`?
**A.** Ki [21]: 800 nM; Ki [22]: 5900 nM; Ki [23]: 330 nM; Ki [24]: 95 nM; Ki [25]: 2200 nM; Ki [8]: 6 nM; Ki [26]: 2200 nM; Ki [9]: 66 nM; Ki [10]: 54 nM; Ki [11]: 100 nM; Ki [12]: 6000 nM; Ki [13]: 2 nM; Ki [14]: 830 nM; Ki [15]: 29 nM; Ki [16]: 1900 nM; Ki [18]: 540 nM; Ki [1]: 1000 nM; Ki [4]: 940 nM; Ki [5]: 1700 nM; Ki [6]: 100 nM; Ki [19]: 970 nM; Ki [7]: 2400 nM

**Q.** `O=C(Oc1cccc2ccccc12)N1c2ccccc2Sc2ccccc21` was tested. Which Ki [19] did it give?
**A.** Its Ki is 3900 nM.

**Q.** And the Ki [20]?
**A.** Its Ki is 40 nM.

**Q.** Which Ki [18] does the source give for `O=C(CCCc1ccccc1)N1c2ccccc2Sc2ccccc21` here?
**A.** Its Ki is 7500 nM.

**Q.** And the Ki [27]?
**A.** The Ki was 3800 nM.

**Q.** And the Ki [28]?
**A.** The Ki was 4100 nM.

**Q.** And the Ki [3]?
**A.** The Ki was 1700 nM.

**Q.** What about the Ki [19] of the same compound?
**A.** The Ki was 3300 nM.

**Q.** What about the Ki [7] of the same compound?
**A.** The Ki was 1600 nM.

**Q.** Which Ki [19] does the source give for `O=C(c1cccc(Br)c1)N1c2ccccc2Sc2ccccc21` here?
**A.** The Ki was 92 nM.

**Q.** With `O=C(Cc1ccc2ccccc2c1)N1c2ccccc2Sc2ccccc21` as the compound, how does the Ki [29] read?
**A.** The Ki was 330 nM.

**Q.** What about the Ki [2] of the same compound?
**A.** Its Ki is 9900 nM.

**Q.** And the Ki [4]?
**A.** Its Ki is 2200 nM.

**Q.** What about the Ki [6] of the same compound?
**A.** Its Ki is 2000 nM.

**Q.** What about the Ki [19] of the same compound?
**A.** The Ki was 6600 nM.

**Q.** And the Ki [20]?
**A.** Its Ki is 30 nM.
